Paper PMC4963535, “Structure-guided development of heterodimer-selective GPCR ligands” (Nature Communications, 2016)
“Also recorded” adds a separate entry of the source. Where two headings read alike, the source gives them in different places. Non-standard residues stand in square brackets, D forms with d. No end group written: not given here. aminoindane‑type D2R agonist pharmacophore = not defined here; N(4-hydroxyphenethyl)Gly = O=C(O)CNCCc1ccc(O)cc1; biphenyltriazole = not defined here

Key:
hD4.4R = biological target: T1, hD4.4R (Homo sapiens, UniProt P21917); test: [3H]spiperone displacement, membranes from CHO cells stably expressing hD4.4R; format: binding
T1 construct: expressed in transfected cells
T1 sequence (P21917 1-419): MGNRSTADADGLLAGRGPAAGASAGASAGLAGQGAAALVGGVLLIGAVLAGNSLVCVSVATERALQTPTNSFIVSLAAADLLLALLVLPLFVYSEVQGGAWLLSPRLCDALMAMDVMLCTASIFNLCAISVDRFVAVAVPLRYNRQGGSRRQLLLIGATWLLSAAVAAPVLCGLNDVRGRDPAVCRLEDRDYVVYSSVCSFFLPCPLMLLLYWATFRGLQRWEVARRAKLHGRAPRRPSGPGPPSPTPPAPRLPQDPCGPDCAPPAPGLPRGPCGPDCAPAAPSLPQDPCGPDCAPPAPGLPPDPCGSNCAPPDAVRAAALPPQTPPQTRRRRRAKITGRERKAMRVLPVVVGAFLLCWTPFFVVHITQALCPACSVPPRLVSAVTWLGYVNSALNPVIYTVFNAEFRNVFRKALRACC

D2SR = biological target: T2, D2SR (Homo sapiens, UniProt P14416); test: cAMP BRET assay (CAMYEL biosensor), HEK 293 T cells expressing D2SR; format: cell-based; conditions: 10 μM forskolin
T2 construct: expressed in transfected cells; host or cells: HEK 293 T

D2LR/NTS1R = D2LR/NTS1R (Homo sapiens, UniProt P14416+P30989); test: [3H]spiperone displacement, membranes from HEK 293 T cells coexpressing D2LR and NTS1R; conditions: D2LR:NTS1R 1:2; mean ± s.e.m.
D2R = biological target: T3, D2R (Homo sapiens, UniProt P14416); test: Antagonist effect on quinpirole-mediated inhibition of cAMP accumulation, HEK 293T cells expressing D2R; format: cell-based
T3 construct: expressed in transfected cells; host or cells: HEK 293 T

D2R_D80A/NTS1R = biological target: T4, D2R_D80A/NTS1R (Homo sapiens, UniProt P14416+P30989, D80A); test: β-arrestin-2 recruitment (DiscoveRx PathHunter), ProLink-tagged signalling incompetent D2R_D80A coexpressed with NTS1R; format: cell-based
T4 construct: host or cells: HEK 293 stably expressing EA-tagged β-arrestin-2

hD3R = biological target: T5, hD3R (Homo sapiens, UniProt P35462); test: [3H]spiperone displacement, membranes from CHO cells stably expressing hD3R; format: binding
T5 construct: expressed in transfected cells

hNTS2R = biological target: T6, hNTS2R (Homo sapiens, UniProt O95665); test: [3H]NT(8-13) displacement, homogenates from transiently transfected HEK 293T cells, human NTS2R; format: binding
T6 construct: host or cells: HEK 293T

[1] = biological target: porcine striatal membranes (D2LR, NTS1R); test: [3H]spiperone displacement, porcine striatal membranes; format: binding; conditions: porcine striatum
[2] = biological target: T7, D2R/NTS1R heterodimer (D2LR and NTS1R coexpressed in HEK 293 T membranes), P14416; test: +1 uM NT(8-13); conditions: N-homotyrosine (NhTyr) in place of tyrosine
[3] = biological target: T7, D2R/NTS1R heterodimer (D2LR and NTS1R …); test: monophasic; conditions: N-homotyrosine (NhTyr) in place of tyrosine; N-terminus carries a 22-atom polyethylene glycol-based spacer, a biphenyltriazole moiety and a 2-methoxyphenylpiperazine D2R antagonist pharmacophore

T7 sequence (P14416 whole entry, chain 1 of 2): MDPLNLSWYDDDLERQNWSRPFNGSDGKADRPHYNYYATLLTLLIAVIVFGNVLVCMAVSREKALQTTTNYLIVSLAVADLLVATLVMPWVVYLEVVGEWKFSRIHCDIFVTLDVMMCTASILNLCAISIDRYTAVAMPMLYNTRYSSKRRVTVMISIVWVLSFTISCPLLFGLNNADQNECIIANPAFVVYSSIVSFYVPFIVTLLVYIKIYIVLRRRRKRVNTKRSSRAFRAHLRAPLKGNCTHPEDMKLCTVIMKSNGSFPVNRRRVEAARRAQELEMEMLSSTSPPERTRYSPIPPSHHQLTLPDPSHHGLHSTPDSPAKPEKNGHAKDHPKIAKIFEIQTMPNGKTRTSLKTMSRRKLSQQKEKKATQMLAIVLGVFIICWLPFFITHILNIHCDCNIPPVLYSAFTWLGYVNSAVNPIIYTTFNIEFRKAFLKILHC
T7 sequence (P30989 whole entry, chain 2 of 2, further chain): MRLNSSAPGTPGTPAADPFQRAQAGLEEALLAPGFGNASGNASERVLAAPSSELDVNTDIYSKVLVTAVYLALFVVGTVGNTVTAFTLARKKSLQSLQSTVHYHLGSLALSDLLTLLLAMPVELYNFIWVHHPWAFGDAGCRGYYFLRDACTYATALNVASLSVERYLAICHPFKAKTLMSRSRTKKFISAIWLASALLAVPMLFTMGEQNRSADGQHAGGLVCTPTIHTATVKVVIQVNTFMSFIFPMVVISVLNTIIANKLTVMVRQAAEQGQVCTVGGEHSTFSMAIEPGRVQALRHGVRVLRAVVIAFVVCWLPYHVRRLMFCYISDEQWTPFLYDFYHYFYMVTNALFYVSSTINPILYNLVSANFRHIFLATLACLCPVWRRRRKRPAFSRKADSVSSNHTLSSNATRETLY
Chain of D2LR/NTS1R (P14416 whole entry): as the sequence (P14416 whole entry, chain 1 of 2) above
Chain of D2LR/NTS1R (P30989 whole entry): as the sequence (P30989 whole entry, chain 2 of 2, further chain) above
T3 sequence (P14416 1-414 isoform P14416-2): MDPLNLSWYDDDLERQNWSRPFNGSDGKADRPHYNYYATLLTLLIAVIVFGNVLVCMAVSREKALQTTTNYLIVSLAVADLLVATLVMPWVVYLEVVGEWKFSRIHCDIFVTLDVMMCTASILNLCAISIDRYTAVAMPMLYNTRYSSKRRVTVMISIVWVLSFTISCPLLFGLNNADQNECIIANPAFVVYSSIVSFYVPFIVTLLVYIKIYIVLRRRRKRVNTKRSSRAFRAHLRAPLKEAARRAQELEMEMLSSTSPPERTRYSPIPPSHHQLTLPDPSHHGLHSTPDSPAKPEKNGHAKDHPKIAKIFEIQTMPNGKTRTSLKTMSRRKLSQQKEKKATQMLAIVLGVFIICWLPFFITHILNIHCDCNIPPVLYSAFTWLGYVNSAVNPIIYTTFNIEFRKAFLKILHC
T5 sequence (P35462 whole entry): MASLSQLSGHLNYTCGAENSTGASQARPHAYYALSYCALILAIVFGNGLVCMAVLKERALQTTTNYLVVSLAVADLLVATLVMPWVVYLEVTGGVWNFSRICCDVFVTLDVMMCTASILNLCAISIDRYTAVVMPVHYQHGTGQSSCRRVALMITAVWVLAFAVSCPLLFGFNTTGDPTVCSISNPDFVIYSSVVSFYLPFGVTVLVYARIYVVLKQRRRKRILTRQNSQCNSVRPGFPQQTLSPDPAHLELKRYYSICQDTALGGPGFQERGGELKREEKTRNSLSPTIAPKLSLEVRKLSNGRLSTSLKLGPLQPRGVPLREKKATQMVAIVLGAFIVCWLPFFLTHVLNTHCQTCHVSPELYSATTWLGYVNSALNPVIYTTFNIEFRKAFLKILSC
T2 sequence (P14416 1-414 isoform P14416-2): as the sequence (P14416 1-414 isoform P14416-2) above
T6 sequence (O95665 whole entry): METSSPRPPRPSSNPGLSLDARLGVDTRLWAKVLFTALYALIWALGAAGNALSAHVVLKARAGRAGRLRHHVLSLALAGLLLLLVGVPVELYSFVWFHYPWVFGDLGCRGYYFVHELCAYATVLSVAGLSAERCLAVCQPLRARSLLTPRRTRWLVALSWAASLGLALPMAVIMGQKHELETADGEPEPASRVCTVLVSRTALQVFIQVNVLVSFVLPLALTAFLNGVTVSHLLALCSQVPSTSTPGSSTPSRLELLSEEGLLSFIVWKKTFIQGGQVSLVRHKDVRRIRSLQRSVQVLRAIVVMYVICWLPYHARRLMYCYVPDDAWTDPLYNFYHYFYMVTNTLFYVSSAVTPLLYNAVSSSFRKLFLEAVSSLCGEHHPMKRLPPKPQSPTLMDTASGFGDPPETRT
T4 sequence (P14416 1-414 isoform P14416-2 D80A): as the sequence (P14416 1-414 isoform P14416-2) above, with D80A counted along it
T4 sequence (P30989 whole entry): as the sequence (P30989 whole entry, chain 2 of 2, further chain) above

## CCCN(CCCCc1cn(-c2ccc(-c3ccc(C(=O)NCCOCCOCCOCCOCCOCCOCCC(=O)N[C@@H](CCCNC(=N)N)C(=O)N[C@@H](CCCNC(=N)N)C(=O)N4CCC[C@H]4C(=O)N[C@@H](Cc4ccc(O)cc4)C(=O)N[C@H](C(=O)N[C@@H](CC(C)C)C(=O)O)[C@@H](C)CC)cc3)cc2)nn1)C1Cc2ccccc2C1 [3a]
hD4.4R
  Ki: 25 ± 10 nM

## CCCN(CCCCc1cn(-c2ccc(-c3ccc(C(=O)NCCOCCOCCOCCOCCOCCOCCC(=O)NCCOCCOCCOCCOCCOCCOCCC(=O)NCCOCCOCCOCCOCCOCCOCCC(=O)N[C@@H](CCCNC(=N)N)C(=O)N[C@@H](CCCNC(=N)N)C(=O)N4CCC[C@H]4C(=O)N[C@@H](Cc4ccc(O)cc4)C(=O)N[C@H](C(=O)N[C@@H](CC(C)C)C(=O)O)[C@@H](C)CC)cc3)cc2)nn1)C1Cc2ccccc2C1 [3c]
hD4.4R
  Ki: 80 ± 26 nM
D2SR
  effect on forskolin-induced cAMP accumulation, cells expressing D2R only (in words): stimulates D2R similar to quinpirole
D2LR/NTS1R
  Fraction high (fraction representing the high-affinity binding site): 50 ± 4%

## CCc1cc(Cl)c(OC)c(C(=O)NC[C@@H]2CCCN2CC)c1O [eticlopride, reference compound]
D2R
  IC50: 3.1 nM
  antagonist behaviour at D2R (in words): inverse agonists; also recorded: inverse agonist effect
  decrease of the basal response (inverse agonist effect on basal cAMP level): 22%

## CC[C@H](C)[C@H](NC(=O)[C@H](Cc1ccc(O)cc1)NC(=O)[C@@H]1CCCN1C(=O)[C@H](CCCNC(=N)N)NC(=O)[C@H](CCCNC(=N)N)NC(=O)CCOCCOCCOCCOCCOCCOCCNC(=O)CCOCCOCCOCCOCCOCCOCCNC(=O)CCOCCOCCOCCOCCOCCOCCNC(=O)c1ccc(-c2ccc(-n3cc(CCCCN4CCN(c5ccccc5OC)CC4)nn3)cc2)cc1)C(=O)N[C@@H](CC(C)C)C(=O)O [2c]
hD4.4R
  Ki: 430 ± 220 nM
D2SR
  effect on forskolin-induced cAMP accumulation, cells expressing D2R only (in words): only weakly activates D2R
D2R_D80A/NTS1R
  concentration of maximum effect (bell-shaped curve), D2R_D80A/NTS1R: 300 nM
D2LR/NTS1R
  Fraction high (fraction representing the high-affinity binding site): 61 ± 2%

## CCc1cc(Cl)c(OC)c(C(=O)NC[C@@H]2C[C@@H](OCCCCc3cn(-c4ccc(-c5ccc(C(=O)NCCOCCOCCOCCOCCOCCOCCC(=O)NCCOCCOCCOCCOCCOCCOCCC(=O)NCCOCCOCCOCCOCCOCCOCCC(=O)N[C@@H](CCCNC(=N)N)C(=O)N[C@@H](CCCNC(=N)N)C(=O)N6CCC[C@H]6C(=O)N[C@@H](Cc6ccc(O)cc6)C(=O)N[C@H](C(=O)N[C@@H](CC(C)C)C(=O)O)[C@@H](C)CC)cc5)cc4)nn3)CN2CC)c1O [1c]
hD4.4R
  Ki: 420 ± 100 nM
D2LR/NTS1R
  Fraction high (fraction representing the high-affinity binding site): 66 ± 5%

## CC[C@H](C)[C@H](NC(=O)[C@H](Cc1ccc(O)cc1)NC(=O)[C@@H]1CCCN1C(=O)[C@H](CCCNC(=N)N)NC(=O)[C@H](CCCNC(=N)N)NC(=O)CCOCCOCCOCCOCCOCCOCCNC(=O)CCOCCOCCOCCOCCOCCOCCNC(=O)CCOCCOCCOCCOCCOCCOCCNC(=O)CCOCCOCCOCCOCCOCCOCCNC(=O)c1ccc(-c2ccc(-n3cc(CCCCN4CCN(c5ccccc5OC)CC4)nn3)cc2)cc1)C(=O)N[C@@H](CC(C)C)C(=O)O [2d]
hD4.4R
  Ki: 370 ± 50 nM
D2LR/NTS1R
  Fraction high (fraction representing the high-affinity binding site): 62 ± 3%

## CCc1cc(Cl)c(OC)c(C(=O)NC[C@@H]2C[C@@H](OCCCCc3cn(-c4ccc(-c5ccc(C(=O)NCCOCCOCCOCCOCCOCCOCCC(=O)NCCOCCOCCOCCOCCOCCOCCC(=O)NCCOCCOCCOCCOCCOCCOCCC(=O)NCCOCCOCCOCCOCCOCCOCCC(=O)N[C@@H](CCCNC(=N)N)C(=O)N[C@@H](CCCNC(=N)N)C(=O)N6CCC[C@H]6C(=O)N[C@@H](Cc6ccc(O)cc6)C(=O)N[C@H](C(=O)N[C@@H](CC(C)C)C(=O)O)[C@@H](C)CC)cc5)cc4)nn3)CN2CC)c1O [1d]
hD3R
  Ki: 1.6 ± 0.4 nM
hD4.4R
  Ki: 440 ± 190 nM
D2LR/NTS1R
  Fraction high (fraction representing the high-affinity binding site): 51 ± 5%

## CCc1cc(Cl)c(OC)c(C(=O)NC[C@@H]2C[C@@H](OCCCCc3cn(-c4ccc(-c5ccc(C(=O)NCCOCCOCCOCCOCCOCCOCCC(=O)N[C@@H](CCCNC(=N)N)C(=O)N[C@@H](CCCNC(=N)N)C(=O)N6CCC[C@H]6C(=O)N[C@@H](Cc6ccc(O)cc6)C(=O)N[C@H](C(=O)N[C@@H](CC(C)C)C(=O)O)[C@@H](C)CC)cc5)cc4)nn3)CN2CC)c1O [1a]
hD4.4R
  Ki: 470 ± 420 nM

## CC[C@H](C)[C@H](NC(=O)[C@H](Cc1ccc(O)cc1)NC(=O)[C@@H]1CCCN1C(=O)[C@H](CCCNC(=N)N)NC(=O)[C@H](CCCNC(=N)N)NC(=O)CCOCCOCCOCCOCCOCCOCCNC(=O)c1ccc(-c2ccc(-n3cc(CCCCN4CCN(c5ccccc5OC)CC4)nn3)cc2)cc1)C(=O)N[C@@H](CC(C)C)C(=O)O [2a]
hD3R
  Ki: 2.7 ± 0.1 nM
hD4.4R
  Ki: 62 ± 4 nM

## CCCN(CCCCc1cn(-c2ccc(-c3ccc(C(=O)NCCOCCOCCOCCOCCOCCOCCC(=O)NCCOCCOCCOCCOCCOCCOCCC(=O)NCCOCCOCCOCCOCCOCCOCCC(=O)NCCOCCOCCOCCOCCOCCOCCC(=O)N[C@@H](CCCNC(=N)N)C(=O)N[C@@H](CCCNC(=N)N)C(=O)N4CCC[C@H]4C(=O)N[C@@H](Cc4ccc(O)cc4)C(=O)N[C@H](C(=O)N[C@@H](CC(C)C)C(=O)O)[C@@H](C)CC)cc3)cc2)nn1)C1Cc2ccccc2C1 [3d]
hD4.4R
  Ki: 180 ± 40 nM
D2LR/NTS1R
  Fraction high (fraction representing the high-affinity binding site): 53 ± 6%

## CC[C@H](C)[C@H](NC(=O)CN(CCc1ccc(O)cc1)C(=O)[C@@H]1CCCN1C(=O)[C@H](CCCNC(=N)N)NC(=O)[C@H](CCCNC(=N)N)NC(=O)CCOCCOCCOCCOCCOCCOCCNC(=O)c1ccc(-c2ccc(-n3cc(CCCCN4CCN(c5ccccc5OC)CC4)nn3)cc2)cc1)C(=O)N[C@@H](CC(C)C)C(=O)O [2e]
hD3R
  Ki: 5.8 ± 1.3 nM
hNTS2R
  Ki: 20 nM

## CCc1cc(Cl)c(OC)c(C(=O)NC[C@@H]2C[C@@H](OCCCCc3cn(-c4ccc(-c5ccc(C(=O)NCCOCCOCCOCCOCCOCCOCCC(=O)NCCOCCOCCOCCOCCOCCOCCC(=O)N[C@@H](CCCNC(=N)N)C(=O)N[C@@H](CCCNC(=N)N)C(=O)N6CCC[C@H]6C(=O)N[C@@H](Cc6ccc(O)cc6)C(=O)N[C@H](C(=O)N[C@@H](CC(C)C)C(=O)O)[C@@H](C)CC)cc5)cc4)nn3)CN2CC)c1O [1b]
hD4.4R
  Ki: 850 ± 750 nM
D2R; 10 nM quinpirole
  antagonist behaviour at D2R (in words): inverse agonists; also recorded: inverse agonist effect
  decrease of the basal response (inverse agonist effect on basal cAMP level): 32%
D2LR/NTS1R
  Fraction high (fraction representing the high-affinity binding site): 31 ± 6%

## CCCN(CCCCc1cn(-c2ccc(-c3ccc(C(=O)NCCOCCOCCOCCOCCOCCOCCC(=O)NCCOCCOCCOCCOCCOCCOCCC(=O)N[C@@H](CCCNC(=N)N)C(=O)N[C@@H](CCCNC(=N)N)C(=O)N4CCC[C@H]4C(=O)N(CCc4ccc(O)cc4)CC(=O)N[C@H](C(=O)N[C@@H](CC(C)C)C(=O)O)[C@@H](C)CC)cc3)cc2)nn1)C1Cc2ccccc2C1 [3f]
[1]; read-out: Ki (monophasic), striatal membranes, absence of NT(8-13)
  Ki: 28 ± 16 nM
[1]; read-out: Ki in the presence of […] μM NT(8-13), striatal membranes, monophasic
  Ki: 29 ± 5 nM
hD3R
  Ki: 1.1 ± 0.1 nM
hD4.4R
  Ki: 71 ± 4 nM
hNTS2R
  Ki: 20 nM

## CC[C@H](C)[C@H](NC(=O)CN(CCc1ccc(O)cc1)C(=O)[C@@H]1CCCN1C(=O)[C@H](CCCNC(=N)N)NC(=O)[C@H](CCCNC(=N)N)NC(=O)CCOCCOCCOCCOCCOCCOCCNC(=O)CCOCCOCCOCCOCCOCCOCCNC(=O)c1ccc(-c2ccc(-n3cc(CCCCN4CCN(c5ccccc5OC)CC4)nn3)cc2)cc1)C(=O)N[C@@H](CC(C)C)C(=O)O [2f]
hD4.4R
  Ki: 260 ± 170 nM

## {2‑methoxyphenylpiperazine D2R antagonist pharmacophore-biphenyltriazole-PEG spacer 44‑atom}-RRP[N(4-hydroxyphenethyl)Gly]IL (reading uncertain) [bivalent control compound 2f]
[2]; N-terminus carries a 44-atom polyethylene glycol-based spacer, a biphenyltriazole moiety and a 2-methoxyphenylpiperazine D2R antagonist pharmacophore
  Ki: 200 nM

## {2‑methoxyphenylpiperazine D2R antagonist pharmacophore-biphenyltriazole-PEG spacer 22‑atom}-RRP[N(4-hydroxyphenethyl)Gly]IL (reading uncertain) [bivalent control compound 2e]
[3]
  Ki: 30 nM
[2]; N-terminus carries a 22-atom polyethylene glycol-based spacer, a biphenyltriazole moiety and a 2-methoxyphenylpiperazine D2R antagonist pharmacophore
  Ki: 96 nM

## {aminoindane‑type D2R agonist pharmacophore-biphenyltriazole-PEG spacer 22‑atom}-RRP[N(4-hydroxyphenethyl)Gly]IL (reading uncertain) [bivalent control compound 3e]
[2]; N-terminus carries a 22-atom polyethylene glycol-based spacer, a biphenyltriazole moiety and an aminoindane-type D2R agonist pharmacophore
  Ki: 59 nM
